Key:
[1] = molecular target: hACMSD (ACMSD1) (Homo sapiens (Human), UniProt Q8TDX5); assay: Determination of ACMSD1 inhibition, spectrophotometrical in vitro assay; type: biochemical; details: HAA concentration of 10 μM
Method: The activity of compounds as inhibitors of ACMSD1 is determined in a spectrophotometrical in vitro assay. The pre-assay mixture is incubated and a compound of Formula (I), Formula (Ia), Formula (Ib), Formula (II), or Formula (III), or a pharmaceutically acceptable salt thereof, and ACMSD1 solution is then added. The effect of ACMS concentration on the enzyme activity is investigated by varying 3-hydroxyanthranilic acid (3OH-HA) concentration in the pre-assay mixture. Kinetic parameters are calculated from the initial velocity data using a Lineweaver-Burk plot.
The activity of compounds 1-19 and 21-23 as inhibitors of ACMSD1 was determined by measuring the conversion of 3OH-Anthranilic Acid into product (i.e., ACMS) in a spectrophotometrical in vitro assay.
The pre-assay mixture consisting of 3-hydroxyanthranilic acid (3OH-HA), 3-hydroxyanthranilic acid, 3,4-diOxygenase (HAO), and a dialyzed crude extract of E. coli BL21 (DE3) cells expressing the recombinant enzyme, was incubated at 25° C. with monitoring of the increase in absorbance at 360 nm due to the formation of ACMS from 3OH-HA. After the reaction was completed within ˜2 mins, an aliquot of ACMSD1 solution (prepared and purified from Pichia Pastoris overexpressing the recombinant enzyme) was added, and the decrease in absorbance at 360 nm was followed at 15 second intervals. The effect of ACMS concentration on the enzyme activity was investigated by varying 3OH-HA concentration from 2 to 20 μM. Kinetic parameters were calculated from the initial velocity data by using the Lineweaver-Burk plot.
The rate of the decrease in absorbance caused by ACMSD1 was calculated by subtracting that of the control reaction mixture without ACMSD from that described above. One unit of ACMSD activity was indicated as the amount of enzyme that converts 1 mmol of ACMS per minute at 25° C. The absence or a reduction of ACMSD1 activity (e.g., by using ACMSD inhibitors) results in a slow ACMS-spontaneous degradation (i.e., cyclization to form quinolic acid).
The enzymatic activity was determined at a HAA concentration of 10 μM in the presence of the compounds in Table 1 below. The compounds were tested at the concentration of about 5 μM and 10 μM and the IC50 was calculated for compounds showing inhibitory activity higher than 50%.

[2] = system: human primary hepatocytes; assay: NAD+ content in human primary hepatocytes (LCMS/MS); type: cell-based; details: 0.5 μM and 5 μM; compound replaced every 24 hrs
Method: Primary hepatocytes are treated with different concentrations of a compound of Formula (I), Formula (Ia), Formula (Ib), Formula (II), or Formula (III), or a pharmaceutically acceptable salt thereof, or MEHP (control) after seeding. The compound is replaced every 24 hours, and then cells are directly harvested and lysed to detect NAD^+ content through LC MS/MS (liquid chromatography mass spectrometry/mass spectroscopy).
The NAD^+ concentration or content was determined in human primary hepatocytes treated with Compound 4. Vehicle (NT) was used as a control.
At least three experiments were run treating primary hepatocytes with different concentrations of Compound 4 (0.5 μM and 5 μM) after 48 hrs from seeding. Compound 4 was replaced every 24 hrs, and then cells were directly harvested and lysed with ACN/H2O (ratio 5:1). LCMS/MS was used to detect and measure NAD^+ concentration/content. […] (FIG. 1)
The NAD^+ concentration or content was determined in human primary hepatocytes treated with Compound 1 and MEHP, a known ACMSD inhibitor. MEHP was used as a control.
At least three experiments were run treating primary hepatocytes with different concentrations of Compound 1 (0.5 μM, 5 μM, and 50 μM) after 48 hrs from seeding. Compound 1 was replaced every 24 hrs, and then cells were directly harvested and lysed with ACN/H2O (ratio 5:1). […]

[3] = system: SIRT1-regulated genes (Pgc1a, Sod1, Sod2) in primary mouse hepatocytes; assay: RT-qPCR analysis of SIRT1-regulated genes in primary murine hepatocytes; type: cell-based; details: 24 hrs, 5 nM-500 nM range
Method: Cells (AML-12, Hepa-1.6, HEK-293, primary human and murine hepatocytes) are treated with different concentrations of a compound of Formula (I), Formula (Ia), Formula (Ib), Formula (II), or Formula (III), or a pharmaceutically acceptable salt thereof and the gene expression of ACMSD, Pgc1a, Sod1, and Sod2 (MnSOD) is determined using RT-qPCR. Total RNA is extracted from cells and the extracted RNA is treated with DNase and used for reverse transcription (RT).
Primary hepatocytes were prepared from 8-12-week-old C57BL/6J mice by collagenase perfusion method. Mouse livers were perfused with Hank's balanced salt solution (HBSS, KCl, 5.4 mM; KH2PO4, 0.45 mM; NaCl, 138 mM; NaHCO3, 4.2 mM; Na2HPO4, 0.34 mM; glucose, 5.5 mM; HEPES, 1 M; EGTA, 50 mM; CaCl2), 50 mM; pH 7.4). Livers were then washed at a rate of 5 ml/min through the portal vein. After washing, livers were perfused with collagenase (0.025%) solution. Cell viability was assessed by the trypan blue method. Isolated primary hepatocytes were plated with DMEM medium (Gibco) including 10% FCS, 10 units per ml penicillin and HEPES for buffering. The cells were maintained in culture at 37° C. in a humidified atmosphere of 5% CO2/95% air. After 6-8 hrs of attachment, this medium was replaced with media containing different concentrations of an ACMSD inhibitor (i.e., Compound 1 or Compound 17) or with the corresponding concentration of DMSO (as a control). Primary hepatocytes were harvested about 24 hrs later if not indicated differently.
Gene expression of ACMSD and genes known to be regulated by SIRT1, (an enzyme that is strictly NAD^+ dependent) such as Pgc1a, Sod1, Sod2 (MnSOD), were analysed in AML-12 cells, Hepa-1.6 cells and primary murine hepatocytes treated with Compound 1 or 17.
Cells (AML-12, Hepa-1.6, HEK-293, primary human and murine hepatocytes) were treated with different concentrations of Compound 1 or Compound 17. Total RNA was extracted from cells using TRIzol (Invitrogen) according to the manufacturer's instructions. […] 50× diluted cDNA was used for RT-quantitative PCR (RT-qPCR) reactions. […]

[4] = system: SOD2 activity in primary murine hepatocytes; assay: Modulation of SOD2 activity in murine primary hepatocytes; type: cell-based, mouse
Method: Primary hepatocytes or AML-12 cells are lysed and total protein concentration is determined using the Bradford assay. SOD2 activity is determined at indicated times after treatment with a compound of Formula (I), Formula (Ia), Formula (Ib), Formula (II), or Formula (III), or a pharmaceutically acceptable salt thereof, using a SOD Assay Kit. Absorbance is determined and results are expressed in U/ml/mg of protein according to the standard curve and measured protein concentration.
Primary hepatocytes were prepared from 8-12-week-old C57BL/6J mice by collagenase perfusion method. […] Cell viability was assessed by the trypan blue method. […]
Primary hepatocytes or AML-12 cells were then lysed in a 20 mM HEPES buffer (Gibco), pH 7.2, containing 1 mM EGTA (Sigma), 210 mM mannitol (Sigma), and 70 mM sucrose (AMRESCO). Total protein concentration was determined using the Bradford assay (BioRad). SOD-2 activity was determined at indicated times after ACMSD inhibitor treatment by the SOD Assay Kit (Cayman Chemical) according to the manufacturer's instructions. […] Absorbance was determined with a Victor X4 multi-label plate reader (Perkin-Elmer) at 450 nm. Results are expressed in U/ml/mg of protein according to the standard curve and measured protein concentration.

[5] = system: murine primary hepatocytes; assay: NAD+ content in murine primary hepatocytes (HPLC, mass spectrometry); type: cell-based, mouse; details: 24 hours
Excerpt: NAD^+ is extracted using acidic extraction method and samples are collected and homogenized. After insoluble protein parts are pelleted, the samples are separated by high-performance liquid chromatography (HPLC) and analyzed by mass-spectrometry. The proteins in the pellet are quantified by Bradford assay and are used for normalization.
NAD^+ was extracted using acidic extraction method. Samples were collected and homogenized in 70% ice-cold perchloric acid (HClO4). After insoluble protein parts were pelleted by adding potassium carbonate (K2CO3), the samples were separated by high-performance liquid chromatography (HPLC) and analyzed by mass-spectrometry. The proteins in the pellet were quantified by Bradford assay and were used for normalization.

[6] = system: Caspase 3/7 activity in MDCK cells; assay: Modulation of cisplatin-induced caspase 3/7 activity in MDCK cells; type: cell-based; details: p<0.001
Method: MDCK cells are cultured in base medium to a final concentration of 10%. Cells are plated into 96 wells and 24 hours after cell plating the medium is changed with fresh medium supplemented with 1% FBS. Cisplatin is then used to induce cell injury. Different concentrations of Formula (I), Formula (Ia), Formula (Ib), Formula (II), or Formula (III), or a pharmaceutically acceptable salt thereof (in DMSO) are added in combination with cisplatin or prior to adding cisplatin. Caspase 3/7 activity (Promega) is determined according to standard procedures using a luminescent signal readout on a plate reader. Each experiment/condition is performed in triplicate. Caspase activity is analyzed as percentage effect normalized to the cisplatin alone and vehicle treated cells.
MDCK cells (MDCK (NBL-2) ATCC® CCL-34™) were cultured in base medium ATCC-formulated Eagle's Minimum Essential Medium, Catalog No. 30-2003 with fetal bovine serum (FBS) to a final concentration of 10%. […]
Caspase 3/7 activity (Promega) was determined according to standard procedures using a luminescent signal readout on a Victor V plate reader (PerkinElmer). […]
Caspase activity was analyzed as percentage effect normalized to the cisplatin alone (100%) and vehicle treated cells as 0% of caspase activity. Data were analyzed by GraphPad Software. […]

hACMSD (ACMSD1), sequence (Q8TDX5 whole entry): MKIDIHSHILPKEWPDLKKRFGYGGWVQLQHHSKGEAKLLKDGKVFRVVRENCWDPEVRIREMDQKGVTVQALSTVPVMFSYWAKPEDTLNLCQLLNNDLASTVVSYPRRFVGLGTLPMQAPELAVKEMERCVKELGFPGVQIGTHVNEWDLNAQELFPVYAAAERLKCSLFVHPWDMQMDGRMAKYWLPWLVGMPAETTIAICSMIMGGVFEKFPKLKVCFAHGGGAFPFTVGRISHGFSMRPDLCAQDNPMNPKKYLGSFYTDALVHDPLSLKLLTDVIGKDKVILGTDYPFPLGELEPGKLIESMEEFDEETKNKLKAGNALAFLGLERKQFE

| IC50 [1] | SMILES | further results |
| --- | --- | --- |
| 1100 nM | N#Cc1c(Cl)nc(SCc2cccc(C(=O)O)c2)nc1-c1ccccc1 [Compound 22] | – |
| 88 nM | O=C(O)c1cccc(CSc2nc(-c3cccs3)c(Br)c(=O)[nH]2)c1 [Compound 12] | – |
| 66 nM | N#Cc1c(-c2ccco2)nc(SCc2cccc(C(=O)O)c2)[nH]c1=O [Compound 2] | – |
| 960 nM | CCOC(=O)c1cccc(CSc2nc(-c3ccc(C)cc3)c(C#N)c(=O)[nH]2)c1 [Compound 9] | – |
| 12 nM | N#Cc1c(-c2cccs2)nc(SCc2cccc(C(=O)O)c2)[nH]c1=O [Compound 4] | ACMSD-1 inhibition, NAD+ content screening (FIG. 1) [2]: inhibits ACMSD-1 enzyme |
| 4900 nM | N#Cc1c(-c2cccs2)nc(SCC(=O)Nc2ccccc2O)[nH]c1=O [Compound 23] | – |
| 71 nM | O=C(O)c1cccc(CSc2nc(-c3ccccc3)c(Br)c(=O)[nH]2)c1 [Compound 11] | – |
| 5 nM | N#Cc1c(-c2cccs2)nc(SCc2cccc(-c3nn[nH]n3)c2)[nH]c1=O [Compound 17] | Pgc1a mRNA expression level [3]: dose-dependent increase; Sod1 (Cu-Zn SOD) mRNA expression level [3]: but not Sod1; Sod2 (MnSOD) mRNA expression level [3]: dose-dependent increase; dose at which SOD2 effect reached a maximum [4]: about 50 nM; lowest concentration with significant effect on NAD+ levels [5]: ≤ 5 nM |
| 1990 nM | CC(Sc1nc(-c2ccccc2)c(C#N)c(=O)[nH]1)C(=O)O (centres unmarked) [Compound 21] | – |
| 31 nM | N#Cc1c(-c2ccsc2)nc(SCc2cccc(C(=O)O)c2)[nH]c1=O [Compound 3] | – |
| 25 nM | N#Cc1c(-c2cccs2)nc(SCc2cccc(-c3noc(=O)[nH]3)c2)[nH]c1=O [Compound 19] | – |
| 77 nM | N#Cc1c(C2CCCCC2)nc(SCc2cccc(C(=O)O)c2)[nH]c1=O [Compound 6] | – |
| 82 nM | N#Cc1c(-c2ccncc2)nc(SCc2cccc(C(=O)O)c2)[nH]c1=O [Compound 7] | – |
| 136 nM | O=C(O)c1cccc(CSc2nc(-c3ccccc3)c(Cl)c(=O)[nH]2)c1 [Compound 13] | – |
| 49 nM | N#Cc1c(-c2nccs2)nc(SCc2cccc(C(=O)O)c2)[nH]c1=O [Compound 5] | – |
| 82 nM | N#Cc1c(-c2ccc(Cl)cc2)nc(SCc2ccc(C(=O)O)cc2)[nH]c1=O [Compound 8] | – |
| 110 nM | N#Cc1c(-c2ccccc2)nc(SCc2ccc(C(=O)O)cc2)[nH]c1=O [Compound 16] | – |
| 1700 nM | Cc1nc(SCc2cccc(C(=O)O)c2)[nH]c(=O)c1C#N [Compound 10] | – |
| 10 nM | N#Cc1c(-c2cccs2)nc(SCc2cccc(CC(=O)O)c2)[nH]c1=O [Compound 18] | caspase activity compared to cisplatin alone ([6]; 100 μM, in combination with cisplatin): decreased caspase activity in significant manner; caspase activity compared to cisplatin alone ([6]; about 30 μM to about 125 μM, one hour prior to cisplatin): decreased caspase activity in significant manner |
| 740 nM | O=C(O)c1cccc(CSc2nc(-c3ccccc3)cc(=O)[nH]2)c1 [Compound 14] | – |
| 760 nM | O=C(O)c1cccc(CSc2nc(-c3cccs3)cc(=O)[nH]2)c1 [Compound 15] | – |

Reference: patent publication US11254644B2, “Inhibitors of alpha-amino-beta-carboxymuconic acid semialdehyde decarboxylase” (TES Pharma S.r.l., priority 2014, dated 2022)
